In series [1] the test system is canine renal tubule cells. As to conditions: ref MacKay et al., 1998, cited from earlier work.
For series [2], the system named is Primary human renal proximal tubule epithelial cells (RPTECs). As to conditions: for total amount of cadmium assumed accumulated in RPTECs: estimated from measured uptake.
For series [3] the following is noted: cited from earlier work.
For series [4] the following is noted: human; cited from earlier work.
The conditions of series [5]: serum.
Series [6] can be described thus: in vitro.
Series [7] in a line: in vitro. Particulars: human.
The conditions of series [8]: human, indicated by in vivo renal clearance data; ref Contrepois et al., 1985; cited from earlier work.
A short description of series [9]: Rapid equilibrium dialysis. Particulars: for protein binding in the culture media: serum-supplemented media, rapid equilibrium dialysis.
For series [10] the following is noted: smelter workers; ref Ellis et al. (1981); cited from earlier work.
The nature of series [11]: Chip-to-human extrapolation. As to conditions: for predicted renal clearance/GFR ratio from the chip: Chip+Model, ETS=0.
The mark [12] stands for this setting: effluent compared against stock solutions.
Where [13] appears, read: kidney tubule chip, adjusted for non-specific binding, both concentrations.

Read-outs that look alike come from different tables or passages of the source.

The source of these data is paper PMC7053805 (Toxicology in vitro : an international journal published in …, 2019).

For the molecule inulin, the “recovery in luminal effluent” value is reported as at least 98.9% in series [1] (bioreactor with confluent cells) and at most 7.4% in [1] (blank devices).
Take `N.N.[Cl][Pt][Cl]` [Cisplatin, cisplatin]: the “recovery from effluent samples” value in [2] (cell-seeded chip, at equilibrium) is on record as about 100%. The “uptake/reabsorption within the kidney tubule chip” value in series [2] (setting [12]) was “little uptake”. The Cmax in series [3] (human, reported range, ref Verschraagen et al., 2003) was 1400 to 13900 nM.
In the case of `CNC(C)C1CCC(N)C(OC2C(N)CC(N)C(OC3OCC(C)(O)C(NC)C3O)C2O)O1` (stereo not drawn) [Gentamicin, gentamicin], the “serum protein binding” value in series [4] was “no serum protein binding”. The “uptake/reabsorption within the kidney tubule chip” value in series [2] is reported as “little uptake”. Further, in [2] (human), the “reabsorption (loss) from adjusted Cout/Cin” value is 0-5%. Further, the “net uptake by the RPTECs” value in series [2] (tissue chip, on average, 200 and 600 μM) is given as under 0.5%. For the same molecule, the “protein binding in the culture media” value in series [5] is on record as “minimal protein binding”. In “in vitro [6]” (Free fraction in cell culture media), this molecule displayed a fraction unbound of 0.897 ± 0.005. The Cmax in series [3] (human, in vivo) was about 50000 nM. Also, in series [3] (in vivo), the serum concentrations was 5300 ± 1300 ng/mL. Besides, in the series “in vitro [7]”, the recovery is about 100%. The re-absorption in vivo result in series [8] is on record as “around 20%”.
For `CN1CC(=O)NC1=N` [Creatinine, creatinine], in [9], the fraction unbound worked out at 0.934 ± 0.06 and the “protein binding in the culture media” value is listed as “minimal protein binding”. Moreover, in [2] (human), the “reabsorption (loss) from adjusted Cout/Cin” value is reported as 0-5%.
On to `[Cl][Cd][Cl]` [Cadmium, cadmium chloride], for which the “fraction protein-bound in the culture media” value in [9] (binding to serum proteins in culture media) was “up to 71%”. Besides, the “total amount of cadmium assumed accumulated in RPTECs” value in series [2] (after 22 days at 0.05 μM) is 3.2 µg/g; in [2] (after 22 days at 0.5 μM) it was 16.5 µg/g. Moreover, in series [2] (setting [12]), the “uptake/reabsorption within the kidney tubule chip” value is given as “uptake”. In addition, the “reabsorption (loss) from adjusted Cout/Cin” value in [2] (setting [13]) was 24-43%. Moreover, the “concentrations in human kidney” value in series [10] is “up to 400 μg/g”. Also, in series [3] (general population (≥1 year of age) in the USA, ref Agency for Toxic Substances and Disease Registry), the geometric blood level is recorded as ~ 0.002 μM. Further, the Cmax in series [3] (general population, Nigeria, ref Alli, 2015) was about 100 nM; in series [3] (human occupational, Nigeria, ref Alli, 2015), about 1000 nM. For the same molecule, the “predicted renal clearance/GFR ratio from the chip” value was 0.14±0.05 in series [11] (cadmium 0.05 μM (free 0.0145 μM)) and 0.39±0.17 in [11] (cadmium 0.5 μM (free 0.209 μM)). For the same molecule, the “back-calculated Cu/Cf in the chip” value is 68% in series [11] (from in vivo modeled CLR/GFR ratio 0.26 (cadmium, lower concentration)) and 71% in [11] (from in vivo modeled CLR/GFR ratio 0.29 (cadmium, higher concentration)).
With `O=C(O)C(F)(F)C(F)(F)C(F)(F)C(F)(F)C(F)(F)C(F)(F)C(F)(F)F` [PFOA, perfluorooctanoic acid], in series [9], the “protein binding in the culture media” value is reported as “minimal protein binding”. In addition, the “uptake/reabsorption within the kidney tubule chip” value in [2] (setting [12]) is given as “uptake”. In series [2] (setting [13]), the “reabsorption (loss) from adjusted Cout/Cin” value is 3-13%. The same molecule gave a fraction unbound in the series “in vitro [6]” of 0.986 ± 0.149. Moreover, the blood levels in series [3] (occupationally exposed subjects, ref ATSDR, 2018) was at most 24200 nM.
